Test results from patent US4001424A, “1-Oxo-1H-naphtho [2,1-b] pyran derivatives for treating depression” (Carlo Erba S.p.A., priority 1973, dated 1977).

How the values were obtained:
[1] = tested on: reserpine-induced blepharospasm; experiment: Anti-reserpine activity: prevention of reserpine-induced blepharospasm; assay type: in vivo, mice; settings: Mus musculus, 1 h; oral, 30 min before reserpine 2.5 mg/kg endoperitoneally; scored one hour after reserpine; dose reducing symptoms by 50% vs control
Description: (§1) 1-oxo-1H-naphtho[2,1-b]pyran derivatives as well as the pharmaceutical compositions containing them, being the object of the present invention, are active on the central nervous system as antidepressive agents. The antidepressive activity of the compounds of the invention, evaluated in mice from the prevention of reserpine-induced blepharospasm and hypothermia, is shown in the following Table, where the antireserpine effect is indicated as ED50 values, that is, doses able to prevent reserpine-induced blepharospasm and hypothermia by reducing symptoms of 50% if compared with the values obtainable in control animals.
(§2) Reserpine was administered endoperitoneally at a dosage of 2.5 mg/kg, and the compounds tested were administered orally 30 minutes before administration of reserpine. Recording of blepharospasm (evaluated in scores according to the technique described by Rubin B. et al in J. Pharmacol. 120, 125, 1957) and measurement of body temperature (by means of a rectal thermocouple […]) were taken an hour, and respectively, four hours after the administration of reserpine. In particular, the compounds object of the present invention not only allow to obtain a lower general toxicity in comparison with standard antidepressive agents, but also a lower cardiac toxicity as well as the lack of peripheral atropine effects.

[2] = tested on: reserpine-induced hypothermia; experiment: Anti-reserpine activity: prevention of reserpine-induced hypothermia; assay type: in vivo, mice; settings: Mus musculus, 4 h; oral, 30 min before reserpine 2.5 mg/kg endoperitoneally; rectal temperature four hours after reserpine; dose reducing symptoms by 50% vs control
Description: as §1, §2

| Structure (SMILES) | ED50 [1] [mg/kg] | ED50 [2] [mg/kg] |
| --- | --- | --- |
| CCN(C)c1cc(=O)c2c(ccc3ccccc32)o1 [1-oxo-3-(N-methyl-N-ethyl)amino-1H-naphtho[2,1-b]pyran] | 4 | 15 |
| CN(C)c1cc(=O)c2c(ccc3ccccc32)o1 [1-oxo-3-dimethylamino-1H-naphtho[2,1-b]pyran] | 8.7 | 21 |
